Experimental data published in patent publication US20100272853A1, “Method of Increasing the Milk and/or Meat Quantity of Silage-Fed Animals” (BASF SE, priority 2007, published 2010).

Key:
Format in all cases: in vivo
[1] = system: corn; assay: Strip field trials Maryland 2006: corn forage quality by NIRS and MILK 2006 calculated milk production
Protocol: (§1) Field trials were conducted as strip trials in farm fields in 2006 and 2008. A part of the field was treated with pyraclostrobin applied as Headline® whereas another part was left untreated. Headline® was applied at tassel emergence with 0.44 L/ha (110 g pyraclostrobin per ha) by aerial or ground application with a high clearance sprayer. Total spray volume was 93.5 to 187 L/ha for ground application and 18.7 to 46.7 L/ha for aerial application, respectively. Water was used as a carrier to prepare the spray mixture.
(§2) Trials were harvested using a commercial forage harvester when the corn crop reached a dry matter content of about 30 to 40%. The treated and untreated area of the field was harvested separately to gain total biomass yield (ton/acre). Subsequently, the harvested plant material was used for producing silage.
(§3) Forage samples from the harvested plants were taken from both the treated and untreated areas of the field. Samples were taken from the harvested material in the forage wagon following chopping with the commercial harvester. Multiple forage samples were taken for each of both treatments manually during harvesting in each of the trials, mixed in a larger container, and a subsample of 1.3 to 2.25 kg was taken. The subsamples were placed in plastic bags, sealed, cooled, and shipped immediately to Agsource Soil and Forage Laboratory, 106 North Cecil Street, Bonduel Wis. 54107, USA for Near Infrared Reflectance Spectroscopy (NIRS) analysis.
(§4) Typically, samples for NIRS analysis are first dried at 55 to 65° C. for 24 h to 48 h prior to analysis. A representative subsample thereof is then dried at 105° C. for another 12 h to 24 h to evaluate the dry matter content of the samples. Subsequently, the remaining sample is grinded and homogenized and again a representative subsample is used for the NIRS analysis. The NIRS analysis procedure uses a commercially available calibration to estimate the values for each quality parameter based on the spectral reflectance information gained. The calibrations are based on the near infra red reflectance spectra of samples with known quality data. The comparison of the spectra of the samples with unknown quality data with the spectra of the known samples allows calculating estimates for each quality parameter of interest.
(§5) NIRS analysis provided dry matter, crude protein, Acid Detergent Fibre (ADF), Neutral Detergent Fibre (NDF), and starch data. Calculations were included for moisture, adjusted crude protein, Total Digestible Nutrients (TDN), Net Energy for Lactation (NEL), Net Energy for Gain (NEG) and protein solubility.
(§6) The information was then entered into the MILK 2006 University of Wisconsin Corn Silage evaluation system. Calculations of the milk production, energy content and digestibility per ton of corn biomass were carried out using a calculation method described in:
(§7) a) Schwab, E. C., and R. D. Shaver. 2001: “Evaluation of corn silage nutritive value using MILK2000” (pages 21-24) in Proc. of 25th Forage Production and Use Symposium. WI Forage Council Annual Mtg. Eau Claire, Wis. b) Schwab, E. C., R. D. Shaver. J. G. Lauer, and J. G. Coors. 2003: “Estimating silage energy value and milk yield to rank corn hybrids”. J. Anim. Feed Sci. Technol. 109: 1-18. as well as in c) Undersander, D. J., W. T. Howard, and R. D. Shaver. 1993: “Milk per acre spreadsheet for combining yield and quality into a single term”. J. Prod. Ag. 6: 231 235.
In 2006 a total of 16 strip trials were conducted in Queen Ann County, MD. Trial setup, treatments, application, harvesting, sampling and quality analysis including calculation of milk production per ton and per acre followed the procedure described before.

[2] = system: corn hybrids; assay: Field trial Wisconsin 2008 with eight corn hybrids: calculated milk production per ton of harvested biomass; conditions: for Calculated milk production, Milk (kg/t): Unity, Wis., 2008
Protocol: as §1, §2, §3, §4, §5, §6, §7
Eight different corn hybrid varieties were tested in a field trial in Unity, Wis., in 2008. Trial setup, application, harvesting, sampling and quality analysis including calculation of milk production per ton followed the procedure described before. Each hybrid was either treated with pyraclostrobin as described before or untreated. The quality data was converted into milk production per ton of harvested biomass for each hybrid as described above.

[3] = system: corn; assay: Strip field trials Wisconsin 2006: corn forage quality by NIRS and MILK 2006 calculated milk production
Protocol: as §1, §2, §3, §4, §5, §6, §7
In 2006 a total of 7 strip trials were conducted in Manitowoc County, Wis. Trial setup, treatments, application, harvesting, sampling and quality analysis including calculation of milk production per ton and per acre followed the procedure described before.

[4] = system: corn; assay: Strip field trials New York 2006: corn forage quality by NIRS and MILK 2006 calculated milk production
Protocol: as §1, §2, §3, §4, §5, §6, §7
In 2006 a total of 2 strip trials were conducted in Waterloo, N.Y. Trial setup, treatments, application, harvesting, sampling and quality analysis including calculation of milk production per ton and per acre followed the procedure described before.

[5] = MD 2006, vs untreated part of field
[6] = average of 16 strip trials, MD 2006, 110 g pyraclostrobin per ha at tassel emergence
[7] = Example 4.5, hybrid N27B CBLLRW
[8] = Wis. 2006, vs untreated part of field
[9] = average of 7 strip trials, Wis. 2006, 110 g pyraclostrobin per ha at tassel emergence
[10] = N.Y. 2006, vs untreated part of field
[11] = average of 2 strip trials, N.Y. 2006, 110 g pyraclostrobin per ha at tassel emergence

COC(=O)N(OC)c1ccccc1COc1ccn(-c2ccc(Cl)cc2)n1 [Pyraclostrobin, pyraclostrobin]
% CP, % Difference to Untreated [1, 5]: +6.0% | % NDFD, % Difference to Untreated [1, 5]: +3.9% | % Starch, % Difference to Untreated [1, 5]: +10.2% | Milk (kg/t), % Difference to Untreated [1, 5]: +5.9% | TDN % of DM, % Difference to Untreated [1, 5]: +3.6% | % NDF, % Difference to Untreated ([1]; MD 2006, vs untreated part of field, decrease means more energy content): −4.8% | in vitro 48-hour digestible NDF expressed as percent of NDF (% NDFD) [1, 6]: 60.6% | neutral detergent fiber content (% NDF) [1, 6]: 45.9% | starch content (% Starch) [1, 6]: 28.2% | total digestible nutrients as percent of dry matter (TDN % of DM) [1, 6]: 70.0% | calculated value for milk produced per ton of silage (Milk (kg/t)) ([1]; average of 16 strip trials, MD 2006, 110 g pyraclostrobin per ha, MILK 2006 calculation): 1730 kg/t | crude protein content (% CP) ([1]; average of 16 strip trials, Queen Ann County, MD, 2006, Headline 0.44 L/ha (110 g pyraclostrobin per ha) at tassel emergence): 7.1% | Milk, % Difference to Untreated ([2]; Example 4.1, hybrid DS93VT3): +9.6% | Calculated milk production, Milk (kg/t) ([2]; Example 4.1, hybrid DS93VT3): 1608 kg/t | Milk, % Difference to Untreated ([2]; Example 4.2, hybrid S4900VT): +17.5% | Calculated milk production, Milk (kg/t) ([2]; Example 4.2, hybrid S4900VT): 1581 kg/t | Milk, % Difference to Untreated ([2]; Example 4.3, hybrid 3114VT3): +7.1% | Calculated milk production, Milk (kg/t) ([2]; Example 4.3, hybrid 3114VT3): 1648 kg/t | Milk, % Difference to Untreated ([2]; Example 4.4, hybrid 491VT3): +10.9% | Calculated milk production, Milk (kg/t) ([2]; Example 4.4, hybrid 491VT3): 1643 kg/t | Milk, % Difference to Untreated [2, 7]: +22.0% | Calculated milk production, Milk (kg/t) [2, 7]: 1549 kg/t | Milk, % Difference to Untreated ([2]; Example 4.6, hybrid DS93VT3): +20.9% | Calculated milk production, Milk (kg/t) ([2]; Example 4.6, hybrid DS93VT3): 1600 kg/t | Milk, % Difference to Untreated ([2]; Example 4.7, hybrid DKC48-37): +8.8% | Calculated milk production, Milk (kg/t) ([2]; Example 4.7, hybrid DKC48-37): 1684 kg/t | Milk, % Difference to Untreated ([2]; Example 4.8, hybrid DS93VT3): +8.3% | Calculated milk production, Milk (kg/t) ([2]; Example 4.8, hybrid DS93VT3): 1632 kg/t | milk production per ton of harvested corn biomass, result in words ([2]; across the eight tested different corn hybrids): improves the milk production per ton of harvested corn biomass | % CP, % Difference to Untreated [3, 8]: +4.2% | % NDFD, % Difference to Untreated [3, 8]: +13.2% | % Starch, % Difference to Untreated [3, 8]: +13.7% | Milk (kg/t), % Difference to Untreated [3, 8]: +14.0% | % ADF, % Difference to Untreated ([3]; Wis. 2006, vs untreated part of field, decrease means more digestibility): −16.2% | % NDF, % Difference to Untreated ([3]; Wis. 2006, vs untreated part of field, decrease means more energy content): −13.4% | crude protein content (% CP) ([3]; average of 7 strip trials, Manitowoc County, Wis., 2006, 110 g pyraclostrobin per ha at tassel emergence): 7.5% | acid detergent fiber content (% ADF) [3, 9]: 22.2% | in vitro 48-hour digestible NDF expressed as percent of NDF (% NDFD) [3, 9]: 67.6% | neutral detergent fiber content (% NDF) [3, 9]: 39.5% | starch content (% Starch) [3, 9]: 37.4% | calculated value for milk produced per ton of silage (Milk (kg/t)) ([3]; average of 7 strip trials, Wis. 2006, 110 g pyraclostrobin per ha, MILK 2006 calculation): 1815 kg/t | % CP, % Difference to Untreated [4, 10]: +6.0% | % Dry Matter, % Difference to Untreated [4, 10]: −2.2% | % NDFD, % Difference to Untreated [4, 10]: +19.3% | % Starch, % Difference to Untreated [4, 10]: +15.3% | Milk (kg/t), % Difference to Untreated [4, 10]: +21.2% | % NDF, % Difference to Untreated ([4]; N.Y. 2006, vs untreated part of field, decrease means more energy content): −16.8% | crude protein content (% CP) [4, 11]: 6.52% | in vitro 48-hour digestible NDF expressed as percent of NDF (% NDFD) [4, 11]: 51.30% | neutral detergent fiber content (% NDF) [4, 11]: 38.18% | starch content (% Starch) [4, 11]: 42.42% | calculated value for milk produced per ton of silage (Milk (kg/t)) ([4]; average of 2 strip trials, N.Y. 2006, 110 g pyraclostrobin per ha, MILK 2006 calculation): 1653 kg/t | dry matter content (% Dry Matter) ([4]; average of 2 strip trials, Waterloo, N.Y., 2006, 110 g pyraclostrobin per ha at tassel emergence): 36.45%
